In patent US20230391725A1, “MODULATORS OF THE INTEGRATED STRESS RESPONSE PATHWAY” (Evotec International GmbH, priority 2020, published 2023) one finds IC50 data, which are given here for 21 compounds.

The subject of the assay is ATF4. The experiment in a line: HEK-ATF4 High Content Imaging assay (prevention of Tunicamycin induced ISR). Type of assay: cell-based. The settings on record: Homo sapiens, Wild-type HEK293 cells, 6 h incubation, ATF4 signal ratio between nucleus and cytoplasm. The procedure:
Example compounds were tested in the HEK-ATF4 High Content Imaging assay to assess their pharmacological potency to prevent Tunicamycin induced ISR. Wild-type HEK293 cells were plated in 384-well imaging assay plates at a density of 12,000 cells per well in growth medium (containing DMEM/F12, 10% FBS, 2 mM L-Glutamine, 100 U/mL Penicillin—100 μg/mL Streptomycin) and incubated at 37° C., 5% CO2. 24 h later, the medium was changed to 50 μL assay medium per well (DMEM/F12, 0.3% FBS, 2mM L-Glutamine, 100 U/mL Penicillin—100 μg/mL Streptomycin). Example compounds were serially diluted in DMSO, spotted into intermediate plates and prediluted with assay medium containing 3.3 […] Tunicamycin to give an 11-fold excess of final assay concentration. In addition to the example compound testing area, the plates also contained multiples of control wells for assay normalization purposes, wells containing Tunicamycin but no example compounds (High control), as well as wells containing neither example compound nor Tunicamycin (Low control). The assay was started by transferring 5 μL from the intermediate plate into the assay plates, followed by incubation for 6 h at 37° C., 5% CO2. Subsequently, cells were fixed (4% PFA in PBS, 20 min at r.t.) and submitted to indirect ATF4 immunofluorescence staining (primary antibody rabbit anti ATF4, clone D4B8, Cell Signaling Technologies; secondary antibody Alexa Fluor 488 goat anti-rabbit IgG (H+L), Thermofisher Scientific). Nuclei were stained using Hoechst dye (Thermofisher Scientific), and plates were imaged on an Opera Phenix High Content imaging platform equipped with 405 nm and 488 nm excitation. Finally, images were analyzed using script based algorithms. The main readout HEK-ATF4 monitored the ATF4 signal ratio between nucleus and cytoplasm. Tunicamycin induced an increase in the overall ATF4 ratio signal, which was prevented by ISR modulating example compounds. In addition, HEK-CellCount readout was derived from counting the number of stained nuclei corresponding to healthy cells. This readout served as an internal toxicity control.
As usually defined, the IC50 is the concentration needed to halve the response being measured. Regarding `O=C(COc1ccc(Cl)c(F)c1)N[C@H]1CC[C@H](C(=O)NCc2cc(C(F)(F)F)on2)NC1` [Example 43, (2R,5S)-5-[2-(4-chloro-3-fluorophenoxy)acetamido]-N-{[5-(trifluoromethyl)-1,2-oxazol-3-yl]methyl}piperidine-2-carboxamide], the IC50 was 500 to 2000 nM.

Turning to `O=C(COc1ccc(Cl)c(F)c1)N[C@H]1CC[C@H](C(=O)N[C@H]2CC[C@@H](OC(F)(F)F)CC2)NC1` [Example 15, (2R,5S)-5-[2-(4-chloro-3-fluorophenoxy)acetamido]-N-[(1s,4s)-4-(trifluoromethoxy)cyclohexyl]piperidine-2-carboxamide], the IC50 was 2000 to 15000 nM.

With `O=C(COc1ccc(Cl)c(F)c1)N[C@H]1CC[C@H](C(=O)N[C@@H]2CC[C@@H](OC(F)(F)F)C2)NC1` (single isomer, unassigned) [Example 54], the IC50 lay in the range of 500 to 2000 nM.

Turning to `O=C(COc1ccc(Cl)c(F)c1)N[C@H]1CC[C@H](C(=O)N[C@H]2CC[C@H](OC(F)(F)F)C2)NC1` (single isomer, unassigned) [Example 53], the IC50 lay within 1 to 500 nM.

Consider `O=C(COc1ccc(Cl)c(F)c1)N[C@H]1CC[C@H](C(=O)NC2CCC(OC(F)(F)F)C2)NC1` (stereo partly drawn) [Example 47, (2R,5S)-5-[2-(4-chloro-3-fluorophenoxy)acetamido]-N-[3-(trifluoromethoxy)cyclopentyl]piperidine-2-carboxamide], for which the IC50 fell in the range of 500 to 2000 nM.

For `O=C(COc1ccc(Cl)c(F)c1)N[C@H]1CC[C@H](C(=O)NCc2ccc(C(F)(F)F)cc2)NC1` [Example 4, (2R,5S)-5-[2-(4-chloro-3-fluorophenoxy)acetamido]-N-{[4-(trifluoromethyl)phenyl]methyl}piperidine-2-carboxamide], the concentration for half-maximal inhibition (IC50) fell in the range of 1 to 500 nM.

With `O=C(COc1ccc(Cl)c(F)c1)N[C@H]1CC[C@H](C(=O)NOCCOC(F)(F)F)NC1` [Example 6, (2R,5S)-5-[2-(4-chloro-3-fluorophenoxy)acetamido]-N-[2-(trifluoromethoxy)ethoxy]piperidine-2-carboxamide], the IC50 lay within 2000 to 15000 nM.

On to `O=C(COc1ccc(Cl)c(F)c1)N[C@H]1CC[C@H](C(=O)Nc2cccc(OC(F)F)c2)NC1` [Example 30, (2R,5S)-5-[2-(4-chloro-3-fluorophenoxy)acetamido]-N-[3-(difluoromethoxy)phenyl]piperidine-2-carboxamide], for which the IC50 is 500 to 2000 nM.

For `O=C(COc1ccc(Cl)c(F)c1)N[C@H]1CC[C@H](C(=O)Nc2cccc(OC(F)(F)F)n2)NC1` [Example 37, (2R,5S)-5-[2-(4-chloro-3-fluorophenoxy)acetamido]-N-[6-(trifluoromethoxy)pyridin-2-yl]piperidine-2-carboxamide], the IC50 is 1 to 500 nM.

For the compound `O=C(COc1ccc(Cl)c(F)c1)N[C@H]1CC[C@H](C(=O)N2CCc3c2cccc3C(F)(F)F)NC1` [Example 45, 2-(4-chloro-3-fluorophenoxy)-N-[(3S,6R)-6-[4-(trifluoromethyl)-2,3-dihydro-1H-indole-1-carbonyl]piperidin-3-yl]acetamide], the IC50 was in the range of 2000 to 15000 nM.

For `Cn1nc(CNC(=O)[C@H]2CC[C@H](NC(=O)COc3ccc(Cl)c(F)c3)CN2)cc1C(F)(F)F` [Example 42, (2R,5S)-5-[2-(4-chloro-3-fluorophenoxy)acetamido]-N-{[1-methyl-5-(trifluoromethyl)-1H-pyrazol-3-yl]methyl}piperidine-2-carboxamide], the IC50 lay within 1 to 500 nM.

For the compound `O=C(COc1ccc(Cl)c(F)c1)N[C@H]1CC[C@H](C(=O)Nc2ccn(C(F)(F)F)n2)NC1` [Example 34, (2R,5S)-5-[2-(4-chloro-3-fluorophenoxy)acetamido]-N-[1-(trifluoromethyl)-1H-pyrazol-3-yl]piperidine-2-carboxamide], the IC50 is 500 to 2000 nM.

Consider `O=C(COc1ccc(Cl)c(F)c1)N[C@H]1CC[C@H](C(=O)Nc2cccc(F)c2)NC1` [Example 23, (2R,5S)-5-[2-(4-chloro-3-fluorophenoxy)acetamido]-N-(3-fluorophenyl)piperidine-2-carboxamide], for which the IC50 was 500 to 2000 nM.

Take `O=C(COc1ccc(Cl)c(F)c1)N[C@H]1CC[C@H](C(=O)Nc2cccc(C(F)F)c2)NC1` [Example 24, (2R,5S)-5-[2-(4-chloro-3-fluorophenoxy)acetamido]-N-[3-(difluoromethyl)phenyl]piperidine-2-carboxamide]: the IC50 was 1 to 500 nM.

On to `COc1cc(Cl)ccc1NC(=O)[C@H]1CC[C@H](NC(=O)COc2ccc(Cl)c(F)c2)CN1` [Example 16, (2R,5S)-N-(4-chloro-2-methoxyphenyl)-5-[2-(4-chloro-3-fluorophenoxy)acetamido]piperidine-2-carboxamide], for which the IC50 fell in the range of 2000 to 15000 nM.

Take `O=C(COc1ccc(Cl)c(F)c1)N[C@H]1CC[C@H](C(=O)Nc2cccc(C(F)(F)F)c2)NC1` [Example 12, (2R,5S)-5-[2-(4-chloro-3-fluorophenoxy)acetamido]-N-[3-(trifluoromethyl)phenyl]piperidine-2-carboxamide]: the IC50 lay in the range of 1 to 500 nM.

On to `O=C(COc1ccc(Cl)c(F)c1)N[C@H]1CC[C@H](C(=O)NC[C@H]2CC[C@@H](C(F)(F)F)CC2)NC1` [Example 19, (2R,5S)-5-[2-(4-chloro-3-fluorophenoxy)acetamido]-N-{[(1s,4s)-4-(trifluoromethyl)cyclohexyl]methyl}piperidine-2-carboxamide], for which the half-inhibitory concentration (IC50) was in the range of 2000 to 15000 nM.

Take `O=C(COc1ccc(Cl)c(F)c1)N[C@H]1CC[C@H](C(=O)NCc2cc(C(F)(F)F)ccn2)NC1` [Example 44, (2R,5S)-5-[2-(4-chloro-3-fluorophenoxy)acetamido]-N-{[4-(trifluoromethyl)pyridin-2-yl]methyl}piperidine-2-carboxamide]: the IC50 fell in the range of 2000 to 15000 nM.

For `O=C(COc1ccc(Cl)c(F)c1)N[C@H]1CC[C@H](C(=O)Nc2ccc(Cl)cn2)NC1` [Example 25, (2R,5S)-5-[2-(4-chloro-3-fluorophenoxy)acetamido]-N-(5-chloropyridin-2-yl)piperidine-2-carboxamide], the IC50 was in the range of 500 to 2000 nM.

In the case of `O=C(COc1ccc(Cl)c(F)c1)N[C@H]1CC[C@H](C(=O)Nc2ccc(F)c(C(F)(F)F)c2)NC1` [Example 21, (2R,5S)-5-[2-(4-chloro-3-fluorophenoxy)acetamido]-N-[4-fluoro-3-(trifluoromethyl)phenyl]piperidine-2-carboxamide], the IC50 was in the range of 1 to 500 nM.

`O=C(COc1ccc(Cl)c(F)c1)N[C@H]1CC[C@H](C(=O)NCc2ccc(C(F)(F)F)o2)NC1` [Example 17, (2R,5S)-5-[2-(4-chloro-3-fluorophenoxy)acetamido]-N-{[5-(trifluoromethyl)furan-2-yl]methyl}piperidine-2-carboxamide]: the IC50 fell in the range of 2000 to 15000 nM.
